Test results taken from US7625870B2, “Peptide substance restoring respiratory organs function” (“Access Bioscience” CJSC, priority 2004, dated 2009).
Marks after values point to notes of the source that are not given here. Peptide text beside a SMILES is read from it.

Key:
[1] = test system: bleomycine lung fibrosis in rats; experiment: Chronic fibrosing inflammatory process (bleomycine lung fibrosis) in rats; format: in vivo, rat; conditions: for Blood medium CIC / Blood large CIC: blood serum; for Body weight / Relative lungs weight / Ventricular index, right ven./left ven. × 100%: 0,2 μg/kg intraperitoneally
Protocol: The experiment was carried out on 120 white mongrel rats weighing 130-160 g. The animals were divided at random into 3 groups, 40 animals in each. Then the animals were subjected to a thrice-repeated intratracheal administration of bleomycine solution (at a rate of 10.0 mg per kg of body weight) with 2 weeks interval. The tetrapeptide was administered intraperitoneally in the dose of […] of body weight in sterile 0,9% NaCl solution in the course of 7 days beginning from the 5h day after each bleomycine installation.
10 animals of each group were excluded from the experiment by the method of cervical dislocation on the 15, 30, 45 and 60 days after experiment onset.
In each period there was conducted broncho-alveolar lavage fluid (BALF) test in order to estimate its cellular content, and alveolar macrophages phagocytic activity, production of superoxide-anion and total free radical production by BALF cells. In the blood and BALF there were estimated the number of circulating immune complexes (CIC). After the last bleomycin administration there was conducted lung examination.

[2] = test system: sublethal hyperoxic lung injury in rats; experiment: Sublethal hyperoxic lung injury in rats; format: in vivo, rat
Protocol: The experiment was conducted on 96 white mongrel rats weighing 200-230 g. The animals were divided into three groups: 8 intact animals, 48 control and 40 experimental animals. The animals were exposed to oxygenation by 100% oxygen during 60 hours in the running mode by normal pressure in chamber with oxygen expenditure, providing 8-10 full changes of the gas medium in one hour. Tetrapeptide administration was set out on the 3rd day of being in the normal atmosphere. Experimental animals were administered with the tetrapeptide (intraperitoneal administration in the dose of 0,2 μg/kg of body weight, dissolved in 0.9% sodium chloride solution (natural saline), 10 injections, every other day). […] There were conducted biometrical studies, estimation of BALF cytogram and AM phagocytic activity. BALF cellular content was estimated by coloring of the precipitated cells on the glass following the Leishman-Romanowsky method.

[3] = test system: lung tissue explants of mature Wistar rats; experiment: Growth of lung organotypical culture explants; format: cell-based, rat; conditions: for SI, % compared to the control: 3 days of incubation
Protocol: Lung tissue explants of mature Wistar rats were cultivated in petri dishes with collagen bottom cover. The nutritious medium was composed of 35% Eagle's medium, 35% Hanx solution, 25% calf fetal serum and 5% of chicken embryonic extract with added glucose, insulin, gentamycin and glutamin. Ala-Glu-Asp-Leu (SEQ ID NO:1) tetrapeptide was added into the cultural medium in fixed concentrations, from 0,01 to 20,0 ng per ml of nutritious medium. The same amount of natural saline solution was added to the control explants. After 3 days of incubation at the temperature of 37° C. there was assessed an extension of explants' area using phase contrast microscope. Biological activity of the preparation was evaluated by the change of square index (SI) of the explants cultivated in the medium containing the peptide, compared to the control.

[4] = test system: white mongrel male mice; experiment: Acute toxicity, single intramuscular injection; format: in vivo, mouse; conditions: dose exceeding the therapeutic one 5000 times
Excerpt: (§1) The general toxic effect of tetrapeptide was studied in compliance with “The manual of Experimental (Pre-Clinical) Study of New Pharmacological Substances” (2000): acute toxicity was studied in conditions of tetrapeptide single administration, subacute and chronic toxicity were investigated in conditions of long tetrapeptide administration.
Acute toxicity was investigated on 60 white mongrel male mice weighing 20-23 g. The animals were randomized to 6 equal groups. They were intramuscularly injected with the tetrapeptide once in the doses of 1 mg/kg, 2 mg/kg, 3 mg/kg, 4 mg/kg, 5 mg/kg in 0.25 ml of natural saline solution. The control animals received the same amount of natural saline solution (0.9%).

[5] = test system: white mongrel male rats; experiment: Subacute toxicity, 90 days intramuscular; format: in vivo, rat; conditions: long term administration, doses 100-1000 times exceeding the therapeutic one
Excerpt: as §1
Subacute toxicity of the tetrapeptide was investigated on 60 white mongrel male rats weighing 150-250g. The animals of the experimental groups were exposed to intramuscular injection of the tetrapeptide in the doses of 1 μg/kg, 0,1 mg/kg, 1 mg/kg in 0,5 ml of natural saline solution, once a day for 90 days. The animals of the control group were administered with natural saline solution in the same amount. Before the onset of tetrapeptide administration in the 30th, 60th and 90th day the animals were exposed to an examination of the morphological composition and characteristics of the peripheral blood. On the completion of the experiment there were studied biochemical and coagulological blood indices.

[6] = test system: male guinea-pigs; conditions: guinea pig, in vivo
Excerpt: as §1
The tetrapeptide was investigated for chronic toxicity for 6 months, taking into consideration the recommended period of administration, on 100 male guinea-pigs weighing 300-350 g. The animals of the experimental groups were intramuscularly injected with the tetrapeptide in the doses 1 μg/kg, 0,1 mg/kg, 1 mg/kg in 0,5 ml of natural saline solution, once a day for 6 months. The animals of the control group were administered with natural saline solution in the same amount.
These animals were exposed to the assessment of the amount of erythrocytes, hemoglobin, reticulocytes, thrombocytes, leucocytes, leukocytic formula, speed of erythrocytes sedimentation (SES), erythrocytes resistance in peripheral blood. Together with this there was measured the total protein content in the blood serum according to the method of Lowry, potassium and sodium content were measured according to the method of plasma spectrophotometry. On completion of the experiment the animals were subjected to a pathomorphological examination to assess the state of brain and spinal marrow, cerebrospinal ganglia, thyroid gland, adrenal glands, testes, pituitary body, heart, lungs, aorta, liver, kidneys, urinary bladder, pancreas, stomach, small intestine, large intestine, thymus, spleen, lymph nodes, bone marrow.

Structure (SMILES): CC(C)C[C@H](NC(=O)[C@H](CC(=O)O)NC(=O)[C@H](CCC(=O)O)NC(=O)[C@H](C)N)C(=O)O [Tetrapeptide, L-alanyl-L-glutamyl-L-aspartyl-L-leucine] (H-AEDL-OH)
- Blood medium CIC ([1]; day 30): 187.6 ± 20.4*+ units
- Body weight ([1]; day 45): 195.3 ± 6.5+ g
- Relative lungs weight ([1]; day 45): 11.5 ± 0.3*+ mg/g of body weight
- Ventricular index, right ven./left ven. × 100% ([1]; day 45): 42.3 ± 2.1*+ %
- BAFL large CIC ([1]; day 45): 76.3 ± 8.3*+ units
- BAFL medium CIC ([1]; day 45): 79.4 ± 5.4*+ units
- Blood large CIC ([1]; day 45): 135.2 ± 12.3*+ units
- Blood medium CIC ([1]; day 45): 208.7 ± 12.5*+ units
- Body weight ([1]; day 60): 234 ± 9.3+ g
- Relative lungs weight ([1]; day 60): 13.4 ± 0.5*+ mg/g of body weight
- Ventricular index, right ven./left ven. × 100% ([1]; day 60): 46.6 ± 1.4*+ %
- Ventricular index, right ven./left ven. × 100% ([1]; day 60, listed as tetrapeptide): 46,6±1,4%
- BAFL large CIC ([1]; day 60): 53.2 ± 9.4+ units
- BAFL medium CIC ([1]; day 60): 41.8 ± 6.7+ units
- Blood large CIC ([1]; day 60): 81.3 ± 11.3*+ units
- Blood medium CIC ([1]; day 60): 159.4 ± 12.8+ units
- basal superoxid-anion production in response to respiratory explosion stimulators ([1]; in words): decrease
- lung morphologic changes as compared to control animals ([1]; in words, after the 3rd bleomycine installation): reliably less pronounced
- Body weight ([2]; 0,2 μg/kg intraperitoneally, 10 injections, day not given): 228 ± 6+ g
- Phagocytic activity of AM, Phagocytic index ([2]; day 10): 50.8 ± 2.3+
- Phagocytic activity of AM, Phagocytic number ([2]; day 10): 5.78 ± 0.42*+
- Phagocytic activity of AM, Phagocytic index ([2]; day 10, listed as tetrapeptide): 50,8±2,3
- Phagocytic activity of AM, Phagocytic index ([2]; day 20): 45.8 ± 2.6*+
- Phagocytic activity of AM, Phagocytic number ([2]; day 20): 3.35 ± 0.35+
- Phagocytic activity of AM, Phagocytic index ([2]; day 20, listed as tetrapeptide): 45,5±2,6
- Phagocytic activity of AM, Phagocytic index ([2]; day 30): 42.7 ± 2.5
- Phagocytic activity of AM, Phagocytic number ([2]; day 30): 2.83 ± 0.36
- Phagocytic activity of AM, Phagocytic index ([2]; day 40): 40.3 ± 2.3
- Phagocytic activity of AM, Phagocytic number ([2]; day 40): 3.45 ± 0.23
- Phagocytic activity of AM, Phagocytic index ([2]; day 50): 38.5 ± 2.3
- Phagocytic activity of AM, Phagocytic number ([2]; day 50): 3.21 ± 0.24
- pathomorphological changes manifestation (interstitial fibrosis, atelectasis foci, cellular infiltration) ([2]; in words): decrease
- SI, % compared to the control ([3]; 0.01 ng/ml): 2%
- SI, % compared to the control ([3]; 0.1 ng/ml): 14%
- SI, % compared to the control ([3]; 0.5 ng/ml): 9%
- SI, % compared to the control ([3]; 1.0 ng/ml): 22* %
- SI, % compared to the control ([3]; 2.0 ng/ml): 53* %
- SI, % compared to the control ([3]; 10.0 ng/ml): 25* %
- SI, % compared to the control ([3]; 20.0 ng/ml): 9%
- growth of organotypic lung culture explants ([3]; in words, concentrations from 1,0 to 10,0 ng/ml): reliably stimulates
- acute toxicity, toxic reactions [4]: does not cause any toxic reactions
- subacute toxicity, side-effects [5]: does not reveal any side-effects
- chronic toxicity, side-effects [6]: does not reveal any side-effects
- effect on SES, erythrocytes resistance and biochemical indices of blood serum [6]: weren't revealed a reliable effect
- number of leucocytes (blood morphological content) [6]: increase
